{"source": "paper PMC10120462", "about": "“Styrylquinazoline derivatives as ABL inhibitors selective for different DFG orientations” (Journal of Enzyme Inhibition and Medicinal Chemistry, 2023)", "target": "T1, ABL (Homo sapiens, UniProt P00519)", "T1 construct": "purchased Promega", "T1 sequence (P00519 whole entry)": "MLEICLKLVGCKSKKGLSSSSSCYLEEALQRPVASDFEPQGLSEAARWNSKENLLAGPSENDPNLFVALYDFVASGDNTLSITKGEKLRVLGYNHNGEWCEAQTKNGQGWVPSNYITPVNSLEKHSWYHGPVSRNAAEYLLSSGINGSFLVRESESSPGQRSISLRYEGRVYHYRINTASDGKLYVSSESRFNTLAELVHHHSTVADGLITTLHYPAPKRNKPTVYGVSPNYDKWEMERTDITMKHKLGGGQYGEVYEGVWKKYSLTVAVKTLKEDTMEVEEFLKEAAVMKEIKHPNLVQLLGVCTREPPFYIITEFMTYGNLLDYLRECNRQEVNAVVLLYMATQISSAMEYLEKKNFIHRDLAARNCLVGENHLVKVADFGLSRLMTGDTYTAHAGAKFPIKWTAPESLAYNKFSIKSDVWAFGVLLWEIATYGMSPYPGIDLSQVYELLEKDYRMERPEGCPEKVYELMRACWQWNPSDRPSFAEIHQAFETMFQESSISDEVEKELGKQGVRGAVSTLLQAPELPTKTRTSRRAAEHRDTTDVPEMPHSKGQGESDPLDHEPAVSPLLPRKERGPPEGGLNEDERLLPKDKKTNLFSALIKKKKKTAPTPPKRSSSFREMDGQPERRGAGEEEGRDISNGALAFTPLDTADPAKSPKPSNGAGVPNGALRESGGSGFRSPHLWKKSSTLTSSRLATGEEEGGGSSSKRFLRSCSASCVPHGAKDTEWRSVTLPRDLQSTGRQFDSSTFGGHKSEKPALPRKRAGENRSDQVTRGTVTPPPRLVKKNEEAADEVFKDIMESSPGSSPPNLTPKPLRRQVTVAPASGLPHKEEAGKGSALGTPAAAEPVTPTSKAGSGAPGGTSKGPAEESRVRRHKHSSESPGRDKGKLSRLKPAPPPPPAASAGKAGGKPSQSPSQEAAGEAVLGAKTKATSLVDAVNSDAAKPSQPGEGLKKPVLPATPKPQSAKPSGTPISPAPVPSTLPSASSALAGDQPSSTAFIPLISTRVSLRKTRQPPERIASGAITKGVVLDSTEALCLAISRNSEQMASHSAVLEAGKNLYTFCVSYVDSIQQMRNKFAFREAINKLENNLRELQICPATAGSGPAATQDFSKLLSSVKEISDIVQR", "assay": "Pharmacological synergy on the ABL enzyme model (ABL1 Kinase Assay)", "assay_type": "biochemical", "details": "Chou-Talalay method", "description": "We selected the aforementioned reference inhibitors based on their different modes of interaction with the kinases. […] Thus, the results of this experiment may allow identification of the site where the IS1 inhibitor binds to ABL kinase.\nSynergy experiments were performed analogously to our previous reports[36]^,[65]. Synergy was calculated by the Chou-Talay method (CompuSyn software)[66]^,[67]. Experiments were performed at least three times.", "note": "“Also recorded” adds a separate entry of the source.", "data": [{"molecule": "COc1ccccc1/C=C/c1nc(Sc2ccccc2Cl)c2ccccc2n1", "note": "[IS1, 2-[(E)-2–(2-methoxyphenyl)ethenyl]-4–(2-chlorophenylthio)quinazoline]", "values": [{"measurement": "Effect on ABL inhibition of IS1 in combination with GNF-2", "result": "significantly attenuated inhibition; also recorded: antagonistic outcome"}, {"measurement": "Effect on ABL inhibition of IS1 in combination with dasatinib", "result": "virtually no effect"}, {"measurement": "Effect on ABL inhibition of IS1 in combination with imatinib", "result": "synergistic effect"}]}]}
